Measurements published in patent US12492186B2, “Bicyclic heterocyclic compounds useful as IRAK4 inhibitors” (BRISTOL-MYERS SQUIBB COMPANY, priority 2019, dated 2025).

Experiments:
IRAK4 = IRAK4 (Homo sapiens (Human), UniProt Q9NWZ3); assay: IRAK4 Inhibition Assay; assay type: biochemical; conditions: ATP 500 μM; IRAK4 0.6 nM; 60 min room temperature; Caliper LABCHIP 3000
Human whole blood = assay: IRAK4 Whole Blood Assay (IL-6 levels after stimulation with TLR2 agonist lipoteichoic acid); assay type: cell-based; conditions: 10 μg/mL lipoteichoic acid, 5 hours
Experimental: Human whole blood containing the anti-coagulant ACD-A was plated in 384-well plate (25 μL/well) and incubated with compounds for 60 minutes at 37° C. in a 5% CO2 incubator. The blood was stimulated with a TLR2 agonist, 10 μg/mL final concentration of lipoteichoic acid (Invivogen, San Diego, CA) in 25 μL RPMI (Gibco) for 5 hours in a 5% CO2 incubator. At the end of the incubation, plates were centrifuged at 2300 rpm for 5 minutes. Supernatants were harvested and analyzed for IL-6 levels by Flow Cytometry beads assay (BD Biosciences, San Jose, CA).

IRAK4, sequence (Q9NWZ3 whole entry, species assumed): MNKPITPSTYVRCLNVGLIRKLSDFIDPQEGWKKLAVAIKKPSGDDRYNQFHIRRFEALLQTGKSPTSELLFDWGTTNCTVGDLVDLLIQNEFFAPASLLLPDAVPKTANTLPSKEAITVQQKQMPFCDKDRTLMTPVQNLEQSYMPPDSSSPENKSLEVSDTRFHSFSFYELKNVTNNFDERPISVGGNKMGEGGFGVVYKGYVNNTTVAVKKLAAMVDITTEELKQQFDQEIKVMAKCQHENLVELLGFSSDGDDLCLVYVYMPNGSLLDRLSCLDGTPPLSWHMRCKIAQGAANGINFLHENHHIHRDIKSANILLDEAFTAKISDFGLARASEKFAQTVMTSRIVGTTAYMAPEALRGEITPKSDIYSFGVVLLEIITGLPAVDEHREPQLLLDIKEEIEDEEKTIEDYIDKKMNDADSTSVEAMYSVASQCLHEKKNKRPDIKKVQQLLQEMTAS

| Structure (SMILES) | IC50 (IRAK4) | EC50 (Human whole blood) |
| --- | --- | --- |
| CC(C)Nc1c(C(=O)NCCC2CCS(=O)(=O)CC2)cnc2ccc(-c3cn[nH]c3)cc12 [Example 112, N-(2-(1,1-dioxidotetrahydro-2H-thiopyran-4-yl)ethyl)-4-(isopropylamino)-6-(1H-pyrazol-4-yl) quinoline-3-carboxamide] | 4.3 nM | 2730 nM |
| CC(C)Nc1c(C(=O)NCCCc2csc(N)n2)cnc2ccc(-c3cn[nH]c3)cc12 [Example 113, N-(3-(2-aminothiazol-4-yl)propyl)-4-(isopropylamino)-6-(1H-pyrazol-4-yl)quinoline-3-carboxamide] | 5.8 nM | 1630 nM |
| CC(C)Nc1c(C(=O)NCCCc2ccncc2)cnc2ccc(-c3cn[nH]c3)cc12 [Example 114, 4-(isopropylamino)-6-(1H-pyrazol-4-yl)-N-(3-(pyridin-4-yl)propyl)quinoline-3-carboxamide] | 9.1 nM | 1740 nM |
| O=C(NCCc1cccnc1)c1cnc2ccc(-c3cn[nH]c3)cc2c1NC1CC1 [Example 115, 4-(cyclopropylamino)-6-(1H-pyrazol-4-yl)-N-(2-(pyridin-3-yl)ethyl)quinoline-3-carboxamide] | 4.4 nM | 1100 nM |
| O=C(NCCN1CCS(=O)(=O)CC1)c1cnc2ccc(-c3cn[nH]c3)cc2c1NC1CC1 [Example 117, 4-(cyclopropylamino)-N-(2-(1,1-dioxidothiomorpholino)ethyl)-6-(1H-pyrazol-4-yl)quinoline-3-carboxamide] | 4.9 nM | 5190 nM |
| O=C(NCCCc1ccncc1)c1cnc2ccc(-c3cn[nH]c3)cc2c1NC1CC1 [Example 118, 4-(cyclopropylamino)-6-(1H-pyrazol-4-yl)-N-(3-(pyridin-4-yl)propyl)quinoline-3-carboxamide] | 10.8 nM | 3150 nM |
| CC1(Nc2c(C(=O)NCCN3CCS(=O)(=O)CC3)cnc3ccc(-c4cn[nH]c4)cc23)CC1 [Example 119, N-(2-(1,1-dioxidothiomorpholino)ethyl)-4-((1-methylcyclopropyl)amino)-6-(1H-pyrazol-4-yl)quinoline-3-carboxamide] | 3.2 nM | 1180 nM |
| O=C(NCCC1CCS(=O)(=O)CC1)c1cnc2ccc(-c3cn[nH]c3)cc2c1NC1CC1 [Example 120, 4-(cyclopropylamino)-N-(2-(1,1-dioxidotetrahydro-2H-thiopyran-4-yl)ethyl)-6-(1H-pyrazol-4-yl)quinoline-3-carboxamide] | 8.7 nM | 6040 nM |
| CC1(Nc2c(C(=O)NC[C@@H](F)C(C)(C)O)cnc3ccc(-c4cn[nH]c4)cc23)CC1 [Example 121, (R)—N-(2-fluoro-3-hydroxy-3-methylbutyl)-4-((1-methylcyclopropyl)amino)-6-(1H-pyrazol-4-yl)quinoline-3-carboxamide] | 2.7 nM | 686 nM |
| CC1(Nc2c(C(=O)NCCc3cccnc3)cnc3ccc(-c4cn[nH]c4)cc23)CC1 [Example 122, 4-((1-methylcyclopropyl)amino)-6-(1H-pyrazol-4-yl)-N-(2-(pyridin-3-yl)ethyl)quinoline-3-carboxamide] | 2.5 nM | 1270 nM |
| CC1(Nc2c(C(=O)NCC3CCS(=O)(=O)C3)cnc3ccc(-c4cn[nH]c4)cc23)CC1 (centres unmarked) [Example 123, N-((1,1-dioxidotetrahydrothiophen-3-yl)methyl)-4-((1-methylcyclopropyl)amino)-6-(1H-pyrazol-4-yl)quinoline-3-carboxamide] | 4.1 nM | 606 nM |
| CC(=O)N1CCC(c2cc(-c3cnc4ccc(-c5cn[nH]c5)cc4c3NC(C)C)on2)CC1 [Example 127, 1-(4-(5-(4-(isopropylamino)-6-(1H-pyrazol-4-yl)quinolin-3-yl)isoxazol-3-yl)piperidin-1-yl)ethan-1-one] | 6.7 nM | 1170 nM |
| CC(C)CCn1cc(-c2cnc3ccc(-c4cn[nH]c4)cc3c2NC(C)C)nn1 [Example 129, 3-(1-isopentyl-1H-1,2,3-triazol-4-yl)-N-isopropyl-6-(1H-pyrazol-4-yl)quinolin-4-amine] | 1.2 nM | 1430 nM |
| CC(C)Nc1c(-c2cn(CC3CC3)nn2)cnc2ccc(-c3cn[nH]c3)cc12 [Example 130, 3-(1-(cyclopropylmethyl)-1H-1,2,3-triazol-4-yl)-N-isopropyl-6-(1H-pyrazol-4-yl) quinolin-4-amine] | 6 nM | 1890 nM |
| CC(C)Nc1c(-c2cn(CCCO)nn2)cnc2ccc(-c3cn[nH]c3)cc12 [Example 131, 3-(4-(4-(isopropylamino)-6-(1H-pyrazol-4-yl)quinolin-3-yl)-1H-1,2,3-triazol-1-yl)propan-1-ol] | 7.8 nM | 713 nM |
| CC(=O)N1CC(n2cc(-c3cnc4ccc(-c5cn[nH]c5)cc4c3NC(C)C)nn2)C1 [Example 132, 1-(3-(4-(4-(isopropylamino)-6-(1H-pyrazol-4-yl)quinolin-3-yl)-1H-1,2,3-triazol-1-yl)azetidin-1-yl)ethan-1-one] | 2.9 nM | 799 nM |

| Structure (SMILES) | IC50 (IRAK4) | EC50 (Human whole blood) |
| --- | --- | --- |
| CC(C)Nc1c(-c2cn(C3CCNCC3)nn2)cnc2ccc(-c3cn[nH]c3)cc12 [Example 133, N-isopropyl-3-(1-(piperidin-4-yl)-1H-1,2,3-triazol-4-yl)-6-(1H-pyrazol-4-yl)quinolin-4-amine] | 2.9 nM | 779 nM |
| CC(C)Nc1c(-c2cn(C3CN(CC(F)F)C3)nn2)cnc2ccc(-c3cn[nH]c3)cc12 [Example 134, 3-(1-(1-(2,2-difluoroethyl)azetidin-3-yl)-1H-1,2,3-triazol-4-yl)-N-isopropyl-6-(1H-pyrazol-4-yl)quinolin-4-amine] | 6.3 nM | 981 nM |
| CC(=O)N1CCC(n2cc(-c3cnc4ccc(-c5cn[nH]c5)cc4c3NC(C)C)nn2)CC1 [Example 135, 1-(4-(4-(4-(isopropylamino)-6-(1H-pyrazol-4-yl)quinolin-3-yl)-1H-1,2,3-triazol-1-yl)piperidin-1-yl)ethan-1-one] | 3.1 nM | 603 nM |
| CC(C)Nc1c(-c2cn(C3CCN(C)C3=O)nn2)cnc2ccc(-c3cn[nH]c3)cc12 (centres unmarked) [Example 136, 3-(4-(4-(isopropylamino)-6-(1H-pyrazol-4-yl)quinolin-3-yl)-1H-1,2,3-triazol-1-yl)-1-methylpyrrolidin-2-one] | 11.4 nM | 5090 nM |
| CC(C)Nc1c(C(=O)NCCC(C)(C)O)cnc2ccc(-c3cn[nH]c3)nc12 [Example 138, N-(3-hydroxy-3-methylbutyl)-4-(isopropylamino)-6-(1H-pyrazol-4-yl)-1,5-naphthyridine-3-carboxamide] | 2.7 nM | 58 nM |
| CC(C)CCNC(=O)c1cnc2ccc(-c3cn[nH]c3)nc2c1NC(C)C [Example 139, N-isopentyl-4-(isopropylamino)-6-(1H-pyrazol-4-yl)-1,5-naphthyridine-3-carboxamide] | 2.7 nM | 272 nM |
| CC(O)CCNC(=O)c1cnc2ccc(-c3cn[nH]c3)nc2c1NC(C)C (centres unmarked) [Example 140, N-(3-hydroxybutyl)-4-(isopropylamino)-6-(1H-pyrazol-4-yl)-1,5-naphthyridine-3-carboxamide] | 4.8 nM | 137 nM |
| CC(C)Nc1c(C(=O)NC[C@@H](F)C(C)(C)O)cnc2ccc(-c3cn[nH]c3)nc12 [Example 141, (R)—N-(2-fluoro-3-hydroxy-3-methylbutyl)-4-(isopropylamino)-6-(1H-pyrazol-4-yl)-1,5-naphthyridine-3-carboxamide] | 1.4 nM | 40 nM |
| CC(C)Nc1c(C(=O)NCCC(F)(F)F)cnc2ccc(-c3cn[nH]c3)nc12 [Example 142, 4-(isopropylamino)-6-(1H-pyrazol-4-yl)-N-(3,3,3-trifluoropropyl)-1,5-naphthyridine-3-carboxamide] | 6.4 nM | 138 nM |
| CC(C)Nc1c(C(=O)N[C@H]2C[C@H](O)C2)cnc2ccc(-c3cn[nH]c3)nc12 [Example 143, N-((1r,3r)-3-hydroxycyclobutyl)-4-(isopropylamino)-6-(1H-pyrazol-4-yl)-1,5-naphthyridine-3-carboxamide] | 7.2 nM | 1380 nM |
| CC(C)Nc1c(C(=O)NCCN2CCOCC2)cnc2ccc(-c3cn[nH]c3)nc12 [Example 144, 4-(isopropylamino)-N-(2-morpholinoethyl)-6-(1H-pyrazol-4-yl)-1,5-naphthyridine-3-carboxamide] | 4 nM | 285 nM |
| CC(C)Nc1c(C(=O)NCCC2CC2)cnc2ccc(-c3cncs3)nc12 [Example 148, N-(2-cyclopropylethyl)-4-(isopropylamino)-6-(thiazol-5-yl)-1,5-naphthyridine-3-carboxamide] | 16.4 nM | 5420 nM |
| CC(C)Nc1c(C(=O)NCCC2CC2)cnc2ccc(-c3cn[nH]c3)nc12 [Example 149, N-(2-cyclopropylethyl)-4-(isopropylamino)-6-(1H-pyrazol-4-yl)-1,5-naphthyridine-3-carboxamide] | 2.7 nM | 175 nM |
| CC(C)Nc1c(C(=O)NCCC(C)(C)N)cnc2ccc(-c3cn[nH]c3)nc12 [Example 150, N-(3-amino-3-methylbutyl)-4-(isopropylamino)-6-(1H-pyrazol-4-yl)-1,5-naphthyridine-3-carboxamide] | 5.4 nM | 153 nM |
| CC(=O)N[C@H]1CC[C@H](NC(=O)c2cnc3ccc(-c4cn[nH]c4)nc3c2NC(C)C)CC1 [Example 155, N-((1r,4r)-4-acetamidocyclohexyl)-4-(isopropylamino)-6-(1H-pyrazol-4-yl)-1,5-naphthyridine-3-carboxamide] | 3.3 nM | 502 nM |
